# Results reported in patent US20150289512A1, “METHOD FOR PROMOTING PLANT GROWTH” (SUMITOMO CHEMICAL COMPANY, LIMITED, priority 2012, published 2015).
# Key:
# Nicotiana benthamiana = assay: Test Example 6: growth promotion under low-temperature stress by hydroponics of Nicotiana benthamiana, 0.1 ppm; assay type: in vivo; conditions: 0.1 ppm in medium, low-temperature stress 7 days at 1.5±1.0° C., green leaf area 3 days later, equation (1)
# Outline: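 Seeds grown in half-strength Murashige–Skoog medium (pH 5.8), compound at 0.1 ppm (0.1% DMSO), 7 days at 22 °C, 4,000 lux, 16 h day; then 7 days at 1.5±1.0 °C, 2,000 lux; then 3 days recovery at 22 °C. Green leaf area imaged; relative leaf area versus DMSO controls before and after cold, ≥5 scored as mitigating.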
# [1] = test system: Rice (variety: Nipponbare); assay: Test Example 2: promotion of root growth by hydroponics of rice, 1 ppm; assay type: in vivo; conditions: Oryza sativa, hydroponic solution containing the test compound at 1 ppm, average of 4 or 5 individuals, read-out: Relative value of length of seminal root (%-untreated control plot)
# Outline: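 Surface-sterilized Nipponbare seeds germinated 3 days in dark at 28° C in ¼ Hoagland solution with compound at 1 ppm (DMSO 1/10,000; DMSO-only control), then grown hydroponically 3 days at 26° C, 4,000 lux, 16 h day. Seminal root length averaged over 4–5 plants.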
SMILES,relative leaf area (% of untreated control) at 0.1 ppm (Nicotiana benthamiana) [%],change in vivo at 1 ppm [1] [%]
O=C(NCc1ccccc1)c1cc2cc(C(F)(F)F)ccc2o1 [Compound 54],≥ 5,> 5
Cc1c(C(=O)O)oc2ccccc12 [Compound 36],≥ 5,> 5
COC(=O)c1oc2ccc(C(F)(F)F)cc2c1C(F)(F)F [Compound 70],≥ 5,> 5
"COC(=O)c1cc2cc(C(F)(F)F)ccc2o1 [Compound 3, methyl 5-(trifluoromethyl)benzofuran-2-carboxylate]",≥ 5,> 5
COC(=O)c1cc2ccccc2o1 [Compound 1],–,> 5
COC(=O)c1oc2ccc(C(F)(F)F)cc2c1C [Compound 33],–,> 5
O=C(O)c1nc2c(F)cc(F)cc2s1 [Compound 86],≥ 5,> 5
"COC(=O)c1nc2cc(C(F)(F)F)ccc2o1 [Compound 17, methyl 5-trifluoromethylbenzoxazole-2-carboxylate]",–,> 5
COC(=O)c1oc2ccc(C(F)(F)F)cc2c1NS(=O)(=O)c1ccccc1 [Compound 68],≥ 5,> 5
COC(=O)c1oc2ccccc2c1C(F)(F)F [Compound 83],–,> 5
O=C(O)c1oc2ccc(C(F)(F)F)cc2c1C(F)(F)F [Compound 69],≥ 5,> 5
O=C(Nc1ccccc1)c1oc2ccc(C(F)(F)F)cc2c1C(F)(F)F [Compound 76],≥ 5,> 5
CCOC(=O)c1oc2ccc(C(F)(F)F)cc2c1C(F)(F)F [Compound 71],≥ 5,–
COC(=O)c1oc2ccc(C(F)(F)F)cc2c1N(C(C)=O)C(C)=O [Compound 64],≥ 5,–
COC(=O)c1oc2ccccc2c1NC(=O)C(F)(F)F [Compound 39],≥ 5,–
COC(=O)c1oc2ccc(C(F)(F)F)cc2c1O [Compound 50],≥ 5,> 5
NC(=O)c1cc2cc(C(F)(F)F)ccc2o1 [Compound 51],–,> 5
NC(=O)c1oc2ccc(C(F)(F)F)cc2c1C(F)(F)F [Compound 74],≥ 5,> 5
CNC(=O)c1cc2cc(C(F)(F)F)ccc2o1 [Compound 52],≥ 5,> 5
COC(=O)c1oc2ccc(C(F)(F)F)cc2c1NC(C)=O [Compound 63],≥ 5,> 5

SMILES,relative leaf area (% of untreated control) at 0.1 ppm (Nicotiana benthamiana) [%],change in vivo at 1 ppm [1] [%]
O=C(OCc1ccccc1)c1cc2cc(C(F)(F)F)ccc2o1 [Compound 56],≥ 5,> 5
CNC(=O)c1oc2ccc(C(F)(F)F)cc2c1C(F)(F)F [Compound 75],–,> 5
CCOC(=O)c1cc2c(C(F)(F)F)cccc2o1 [Compound 44],–,> 5
O=C(Oc1ccccc1)c1cc2cc(C(F)(F)F)ccc2o1 [Compound 55],–,> 5
Cc1c(C(=O)O)oc2ccc(C(F)(F)F)cc12 [Compound 34],–,> 5
COC(=O)c1oc2ccc(C(F)(F)F)cc2c1NS(C)(=O)=O [Compound 67],–,> 5
COC(=O)c1oc2ccccc2c1NC(C)=O [Compound 40],–,> 5
O=C(O)c1oc2ccccc2c1C(F)(F)F [Compound 82],–,> 5
O=C(NCc1ccccc1)c1oc2ccc(C(F)(F)F)cc2c1C(F)(F)F [Compound 77],≥ 5,> 5
NC(=O)c1oc2ccccc2c1C(F)(F)F [Compound 85],≥ 5,> 5
COC(=O)c1cc2c(C(F)(F)F)cccc2o1 [Compound 45],≥ 5,> 5
O=C(Nc1ccccc1)c1cc2cc(C(F)(F)F)ccc2o1 [Compound 53],≥ 5,> 5
O=C(O)c1cc2cc(Br)ccc2o1 [Compound 79],≥ 5,–
O=C(OCc1ccccc1)c1oc2ccc(C(F)(F)F)cc2c1C(F)(F)F [Compound 73],≥ 5,> 5
COC(=O)c1oc2ccccc2c1C [Compound 37],–,> 5
COC(=O)c1oc2ccc(C(F)(F)F)cc2c1NC(=O)C(F)(F)F [Compound 65],≥ 5,> 5
COC(=O)c1oc2ccccc2c1N(C(C)=O)C(C)=O [Compound 41],–,> 5
COC(=O)c1oc2ccc(C(F)(F)F)cc2c1N(C)C [Compound 62],≥ 5,> 5
O=C(O)c1cc2c(C(F)(F)F)cccc2o1 [Compound 43],≥ 5,> 5
CCOC(=O)c1oc2cccc(O)c2c1C [Compound 80],≥ 5,> 5
